The values that follow come from article PMC10265664, “Peptide Antibiotic–Polyphosphate Nanoparticles: A Promising Strategy to Overcome the Enzymatic and Mucus Barrier of the Intestine” (Biomacromolecules, 2023).

Read-outs that look alike come from different tables or passages of the source.

Series [1] concerns 50 multidrug-resistant Gram-negative bacterial strains. On the set-up: method as in PMID 33045992. The following applies: cited from earlier work.
The conditions of series [2]: cited from earlier work. The source says: The ionic strength of the polycation plays also an important role in the formation of such particles. […] PMB–PP NPs could therefore be formed.
The test system of series [3] is lipase from porcine pancreas. The series is described as follows: Degradation study with lipase. It counts as in vitro ADME. The following applies: porcine pancreatic lipase, 37 °C, sampling 0-24 h, absorbance 210 nm, mean n = 3. The protocol:
Enzymatic degradation of free PMB and PMB being incorporated into NPs was evaluated with lipase. Lipase solution was prepared by dissolving 0.5 g of the enzyme in 10 mL of digestion medium (2 mM Tris buffer with 5 mM CaCl2 and 150 mM NaCl). After homogenization for 10 min, the enzyme mixture was centrifuged at 12,000 rpm (Sigma 3-18KS, Austria) for 15 min at 4 °C.[17] Thereafter, 2 mL of the supernatant liquid was added to 4 mL of 0.01% (m/v) PMB–PP NPs suspension and incubated at 37 °C under constant shaking using a ThermoMixer (Eppendorf, Hamburg, Germany). Aliquots of 100 μL were withdrawn at predetermined time points (0, 1, 2, 4, 6, 12, and 24 h) and transferred to a 96-well microplate (μClear 96-well plates, Greiner bio-one, Austria). PMB–PP NPs and PMB suspension without lipase served as negative control and were incubated under the same conditions. […] The same settings were applied for PMB. The PMB concentration was determined using a calibration curve with increasing concentrations of PMB ranging from 0.78 to 50 μM.
Degradation was evaluated by quantifying the % remaining amount of PMB by the following equation: [drawing 3]

As for Polymyxin B sulfate [PMB], the “MICs (minimum inhibitory concentrations)” value in series [1] (44 of 50 multidrug-resistant Gram-negative bacterial strains) was at least 4 µg/mL; in series [1] (the other 6 of 50 multidrug-resistant Gram-negative bacterial strains) it was 2 µg/mL. Besides, the isoelectric point in series [2] is given as 10.74. The “PMB degraded after lipase exposure” value in series [3] worked out at 39.32%.
